These results are taken from ChEMBL document CHEMBL1799987, “In vivo and in vitro SAR of tetracyclic MAPKAP-K2 (MK2) inhibitors. Part II” (Bioorg Med Chem Lett, 2010).

Converted amounts (≈) assume the structure as drawn. Some results are limits rather than exact numbers.

For one data set, the system named is PBMC. In words: cells. To be noted: Homo sapiens.
Data set [1] can be described thus: Thermodynamic solubility of the compound at pH 6.8. The note with it: buffer, read-out: Therm_solubility. Format: physicochemical.
The species named for another data set is Mus musculus. Briefly: animal or person. The note with it: OF1, po, 1 h, read-out: INH.
In a further data set the test system is Plasma. In words: Plasma concentration in OF1 mouse at 100 mg/kg, po. It counts as ADME, organism-based. More on the design: dose 100 mg/kg, route oral. The note with it: in vivo.
For data set [2], the target named is T1, MAP kinase-activated protein kinase 2 (Homo sapiens, UniProt P49137).
T1 sequence (P49137 whole entry): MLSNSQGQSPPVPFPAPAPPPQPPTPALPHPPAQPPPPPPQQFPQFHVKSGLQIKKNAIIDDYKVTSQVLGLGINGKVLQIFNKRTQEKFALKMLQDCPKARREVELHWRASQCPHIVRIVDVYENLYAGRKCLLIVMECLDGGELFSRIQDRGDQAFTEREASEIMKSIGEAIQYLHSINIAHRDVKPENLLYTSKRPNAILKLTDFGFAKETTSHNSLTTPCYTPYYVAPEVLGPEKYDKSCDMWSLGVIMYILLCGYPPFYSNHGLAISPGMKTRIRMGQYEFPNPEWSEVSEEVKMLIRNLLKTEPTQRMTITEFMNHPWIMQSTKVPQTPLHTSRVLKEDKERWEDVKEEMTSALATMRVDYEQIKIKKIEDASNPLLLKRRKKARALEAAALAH
The target in data set [3] is T1, MAP kinase-activated protein kinase 2. The source holds these as a separate data set.
Description: Inhibition of MK2 mediated anisomycin-stimulated hsp27 phosphorylation in human THP-1 cells by fluorometric analysis

Description for Mus musculus: Inhibition of LPS-induced TNFalpha production in OF1 mouse at 100 mg/kg, po after 1 hr by ELISA
Description for PBMC: Inhibition of LPS-induced TNFalpha production in human PBMC preincubated for 30 mins measured after 3 hrs of LPS stimulation

Regarding `O=C1NCC2(CNC2)c2oc3c(c21)CCc1cnc(-c2cccc(F)c2)cc1-3`, the midpoint of inhibition with PBMC, the IC50, lay at 2500 nM. The solubility thermodynamic in data set [1] is 51 µM (≈ 19.1 µg/mL).
The corresponding values for `COc1ccc(-c2cc3c(cn2)CCc2c-3[nH]c3c2C(=O)NC2(C3)CN(C)C2)cc1` are 1100 nM and below 4 µM.
The corresponding values for `COc1ccc(-c2ncc3c(n2)-c2[nH]c4c(c2CC3)C(=O)NCC42CC2)cc1` are 400 nM and below 4 µM.
With `O=C1NC2(CC2)Cc2[nH]c3c(c21)CCc1cnc(-c2cccc(F)c2)cc1-3`, in the data set on PBMC, the 50% inhibitory concentration (IC50) (usually the concentration needed to halve the response being measured) is 800 nM. The solubility thermodynamic in data set [1] came to 5 µM (≈ 1.8 µg/mL). Besides, the inhibition in vivo at 100 mg/kg in the data set listed under Mus musculus is 55%. In the data set on Plasma, this molecule yielded a concentration of 15000 nM.
The matching figures for `CN1CC2(CNC(=O)c3c2[nH]c2c3CCc3cnc(-c4cccc(F)c4)cc3-2)C1`: 200 nM, 10 µM (≈ 3.88 µg/mL), 0% and 1000 nM.
Consider `O=C1NC2(CC2)Cc2[nH]c3c(c21)CCc1cnc(-c2ccc(OCCN4CCOCC4)cc2)nc1-3`, for which the midpoint of inhibition in the data set with PBMC, the IC50, lay at 300 nM. Moreover, the solubility thermodynamic in data set [1] is below 4 µM.
The molecule `CN1CC2(CNC(=O)c3c2[nH]c2c3CCc3cnc(-c4cccc(F)c4)nc3-2)C1` showed an IC50 in the data set on PBMC of 500 nM.
`CC(=O)N1CC2(CNC(=O)c3c2[nH]c2c3CCc3cnc(-c4ccccc4F)cc3-2)C1` registered a half-inhibitory concentration (IC50) in the data set with PBMC of 6500 nM. Besides, the solubility thermodynamic in data set [1] came out at 24 µM (≈ 9.99 µg/mL).
The matching figures for `O=C1NCCc2[nH]c3c(c21)CCc1cnc(-c2ccccc2F)cc1-3`: 1500 nM and 11 µM (≈ 3.67 µg/mL).
The corresponding values for `COCCOc1cncc(-c2cc3c(cn2)CCc2c-3[nH]c3c2C(=O)NCC3)c1` are 400 nM and 8 µM (≈ 3.12 µg/mL).
As to `COc1ccc(-c2cc3c(cn2)CCc2c-3[nH]c3c2C(=O)NC2(CC2)C3)cc1`, in the data set on PBMC, the IC50 was 200 nM. In data set [1], the solubility thermodynamic is below 4 µM. Further, in the data set listed under Mus musculus, the inhibition in vivo at 100 mg/kg came to 81%. The concentration with Plasma was found to be 25000 nM.
Molecule `COc1ccc(-c2ncc3c(n2)-c2[nH]c4c(c2CC3)C(=O)NCC42CN(C)C2)cc1` had a concentration for half-maximal inhibition (IC50) in the data set with PBMC of 100 nM. The solubility thermodynamic in data set [1] came out at 43 µM (≈ 17.3 µg/mL).
`CN1CC2(CNC(=O)c3c2[nH]c2c3CCc3cnc(-c4ccc(F)nc4)cc3-2)C1`: the IC50 with PBMC amounted to 100 nM. The solubility thermodynamic in data set [1] is 47 µM (≈ 18.3 µg/mL). Further, the inhibition in vivo at 100 mg/kg in the data set filed under Mus musculus turned out to be 26%. In addition, in the data set with Plasma, the concentration amounted to 600 nM.
For `COCCOc1cncc(-c2ncc3c(n2)-c2[nH]c4c(c2CC3)C(=O)NCC42CN(C)C2)c1`, the IC50 in the data set on PBMC stood at 1500 nM.
In the case of `CN1CC2(CNC(=O)c3c2[nH]c2c3Cc3cnc(-c4ccccc4F)cc3-2)C1`, the concentration for half-maximal inhibition (IC50) in the data set on PBMC is above 10000 nM. Moreover, the solubility thermodynamic in data set [1] was found to be 69 µM (≈ 25.8 µg/mL).
With `COCCOc1cncc(-c2cc3c(ccc4c5c([nH]c43)CCNC5=O)cn2)c1`, the 50% inhibitory concentration (IC50) in data set [2] was determined as 10 nM; in data set [3], 1500 nM; with PBMC, 300 nM. In addition, in data set [1], the solubility thermodynamic is below 4 µM.
In the data set with PBMC, `COCCCOc1cncc(-c2cc3c(cn2)CCc2c-3[nH]c3c2C(=O)NCC32CN(C)C2)c1` gave a half-inhibitory concentration (IC50) of 700 nM. This lies in the sub-micromolar range.
The same measure, in the same setting: as for `CN1CC2(CNC(=O)c3c2[nH]c2c3CCc3cnc(-c4ccc(OCCN5CCOCC5)cc4)nc3-2)C1`, the figure is 100 nM.
In the data set on PBMC, `O=C1NCC2(CC2)c2[nH]c3c(c21)CCc1cnc(-c2ccc(F)nc2)cc1-3` came in with a concentration for half-maximal inhibition (IC50) of 700 nM. The solubility thermodynamic in data set [1] is below 4 µM. For the same molecule, the inhibition in vivo at 100 mg/kg in the data set filed under Mus musculus was 30%. The molecule also gave a concentration with Plasma of 1900 nM.
`O=C1NCC2(CC2)c2[nH]c3c(c21)CCc1cnc(-c2cccc(F)c2)cc1-3` had an IC50 in the data set with PBMC of 900 nM. Further, the solubility thermodynamic in data set [1] was below 4 µM.
The corresponding values for `CN1CC2(CNC(=O)c3c4c(n(C)c32)-c2cc(-c3ccccc3F)ncc2CC4)C1` are 1100 nM and 41 µM (≈ 16.5 µg/mL).
For `COc1ccc(-c2ncc3c(n2)-c2[nH]c4c(c2CC3)C(=O)NC2(CC2)C4)cc1`, in data set [1], the solubility thermodynamic is below 4 µM.
Consider `CCN1CC2(CNC(=O)c3c2[nH]c2c3CCc3cnc(-c4ccccc4F)cc3-2)C1`, for which, in the data set on PBMC, half-maximal inhibition (IC50) required 700 nM. The solubility thermodynamic in data set [1] amounted to 950 µM (≈ 382 µg/mL).
Molecule `CN1CC2(CNC(=O)c3c2[nH]c2c3CCc3cnc(-c4ccc(OCCN5CCOCC5)cc4)cc3-2)C1` came in with a 50% inhibitory concentration (IC50) in the data set on PBMC of 600 nM.
`O=C1NCCc2[nH]c(-c3ccnc(-c4ccccc4F)c3)cc21` returned a 50% inhibitory concentration (IC50) in the data set with PBMC above 10000 nM. Further, in data set [1], the solubility thermodynamic turned out to be 337 µM (≈ 104 µg/mL).
In the data set on PBMC, `O=C1NCC2(CNC2)c2[nH]c3c(c21)CCc1cnc(-c2cccc(F)c2)cc1-3` yielded a half-inhibitory concentration (IC50) of 200 nM.
As to `O=C1NC2(CC2)Cc2[nH]c3c(c21)CCc1cnc(-c2ccc(F)nc2)nc1-3`, the IC50 with PBMC came out at 700 nM. In addition, in data set [1], the solubility thermodynamic was below 4 µM.
The corresponding values for `O=C1NC2(CC2)Cc2[nH]c3c(c21)CCc1cnc(-c2ccc(OCCN4CCOCC4)cc2)cc1-3` are 200 nM and below 4 µM.
Regarding `COc1ccc(-c2cc3c(cn2)CCc2c-3[nH]c3c2C(=O)NCC32CN(C)C2)cc1`, in the data set on PBMC, the concentration for half-maximal inhibition (IC50) is 60 nM. Moreover, the solubility thermodynamic in data set [1] worked out at 40 µM (≈ 16 µg/mL). The inhibition in vivo at 100 mg/kg in the data set listed under Mus musculus came out at 0%. The same molecule returned a concentration with Plasma of 100 nM.
Take `O=C1NCCc2[nH]c3c(c21)CCc1cnc(-c2cccc(F)c2)cc1-3`: the IC50 with PBMC worked out at 500 nM. Besides, the solubility thermodynamic in data set [1] is below 4 µM.
For the molecule `COCCOc1cncc(-c2cc3c(cn2)CCCc2c-3[nH]c3c2C(=O)NCC3)c1`, in the data set on PBMC, the IC50 is 1100 nM. Also, the solubility thermodynamic in data set [1] was 21 µM (≈ 8.49 µg/mL).
`O=C1NCC2(CNC2)c2[nH]c3c(c21)CCc1cnc(-c2ccccc2F)cc1-3` displayed an IC50 with PBMC of 100 nM. Further, in data set [1], the solubility thermodynamic came to 337 µM (≈ 126 µg/mL).
The corresponding values for `Cn1c2c(c3c1C1(CNC1)CNC3=O)CCc1cnc(-c3ccccc3F)cc1-2` are 1800 nM and 54 µM (≈ 21 µg/mL).
In turn, `O=C1NC2(CC2)Cc2[nH]c3c(c21)CCc1cnc(-c2ccccc2F)nc1-3` registered a half-inhibitory concentration (IC50) in the data set on PBMC of 2300 nM. Further, the solubility thermodynamic in data set [1] was 8 µM (≈ 2.88 µg/mL).
The corresponding values for `COc1ccc(-c2cc3c(cn2)CCc2c-3[nH]c3c2C(=O)NCC3)cc1` are 100 nM and below 4 µM.
As for `COc1ccc(-c2cc3c(cn2)CCc2c-3[nH]c3c2C(=O)NCC32CC2)cc1`, the IC50 with PBMC was 1700 nM. The solubility thermodynamic in data set [1] is below 4 µM. For the same molecule, the inhibition in vivo at 100 mg/kg in the data set listed under Mus musculus was 16%. The concentration in the data set on Plasma is 600 nM.
The corresponding values for `CN1CC2(CNC(=O)c3c2[nH]c2c3CCc3cnc(-c4ccccc4F)cc3-2)C1` are 100 nM, above 1000 µM, 90% and 6000 nM.
Molecule `CN1CC2(CNC(=O)c3c2[nH]c2c3CCc3cnc(-c4ccc(F)nc4)nc3-2)C1` had a concentration for half-maximal inhibition (IC50) with PBMC of 700 nM. In addition, the solubility thermodynamic in data set [1] was determined as 173 µM (≈ 67.5 µg/mL).
The matching figures for `COc1ccc(-c2cc3c(cn2)CCc2c-3[nH]c3c2C(=O)NC2(CNC2)C3)cc1`: 1300 nM and 32 µM (≈ 12.4 µg/mL).
The matching figures for `CN1CCC2(CC1)CNC(=O)c1c2[nH]c2c1CCc1cnc(-c3ccccc3F)cc1-2`: 200 nM and above 1000 µM.
In the data set with PBMC, `O=C1NCC2(CN(CCF)C2)c2[nH]c3c(c21)CCc1cnc(-c2ccccc2F)cc1-3` yielded an IC50 of 1500 nM. This counts as single-digit micromolar.
For the molecule `COc1ccc(-c2ncc3c(n2)-c2[nH]c4c(c2CC3)C(=O)NCC4)cc1`, the IC50 in the data set with PBMC turned out to be 900 nM. For the same molecule, the solubility thermodynamic in data set [1] was below 5 µM.
The molecule `O=C1NC2(CC2)Cc2[nH]c3c(c21)CCc1cnc(-c2ccccc2F)cc1-3` gave an IC50 in the data set with PBMC of 900 nM. Moreover, the solubility thermodynamic in data set [1] was determined as 10 µM (≈ 3.59 µg/mL).
The matching figures for `CN1CC2(CNC(=O)c3c2[nH]c2c3CCc3cnc(-c4ccccc4F)nc3-2)C1`: 1600 nM and 373 µM (≈ 145 µg/mL).
